The values below come from ChEMBL document CHEMBL1201862, “PubChem BioAssay data set” (2004).

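Each compound was tested at five concentrations against cells in 96-well plates for 48 hours. Abbreviation: GI50, concentration required for 50% inhibition of growth.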 Calls of active or inactive are those of the source. No stated cut-off is given here; in the data, active = GI50 up to about 1.1 µM and inactive = higher.

Test systems include A498; CAKI-1; HCC 2998; HCT-116; HL-60; HT-29; LOX IMVI; MOLT-4; NCI-H23; NCI-H522; RPMI-8226; SF-268; SF-539; SK-MEL-28; SK-OV-3; SNB-78; TK-10; DU-145; BT-549; MDA-MB-231.
Holding throughout (experiment): NCI-60 cell line screen, 48 h

`COC(=O)c1c(-c2ccccc2)sc(-c2cccc3ccccc23)c1C(=O)OC`: the GI50 in the experiment with A498 was > 100 µM (inactive); with CAKI-1, > 100 µM (inactive); in the experiment with HCC 2998, 88.3 µM (inactive); in the experiment with HCT-116 it was > 100 µM (inactive); in the experiment on HL-60, > 100 µM (inactive); in the experiment on HT-29, 51.3 µM (inactive). Further, the GI50 in the experiment with LOX IMVI, in the experiment on MOLT-4, with NCI-H23, in the experiment with NCI-H522, in the experiment on RPMI-8226 and in the experiment with SF-268 was > 100 µM (inactive) throughout. The GI50 in the experiment on SF-539, in the experiment on SK-MEL-28, in the experiment with SK-OV-3, in the experiment on SNB-78 and with TK-10 was > 100 µM (inactive) each time.

Take `COC1=CC(=O)C2C(C1=O)[C@@H]1c3ccccc3OC(C)(C)[C@H]21` (some centres not stated): the GI50 with A498 was > 100 µM (inactive); in the experiment on CAKI-1 it was 16.4 µM (inactive); with HCC 2998 it was > 100 µM (inactive); with HCT-116, 16.2 µM (inactive); with HL-60 it was 16.4 µM (inactive); with HT-29 it was 28.1 µM (inactive). In addition, the GI50 in the experiment with LOX IMVI was 14.2 µM (inactive); in the experiment on MOLT-4 it was 10.1 µM (inactive); in the experiment with NCI-H23, 17.5 µM (inactive); in the experiment on NCI-H522, 13.9 µM (inactive); with RPMI-8226, 26.6 µM (inactive); in the experiment on SF-268, 29.6 µM (inactive). Further, the GI50 in the experiment with SF-539 is 23.5 µM (inactive); in the experiment on SK-MEL-28, 17.4 µM (inactive); in the experiment on SK-OV-3, 90.4 µM (inactive); in the experiment with SNB-78, 18.8 µM (inactive); in the experiment with TK-10, 21.1 µM (inactive).

Take `CCOC(=O)C1=C(O)C(=O)c2cc(C)ccc2C1=O`: the GI50 in the experiment on A498 is 21.9 µM (inactive); with CAKI-1, > 100 µM (inactive); with HCC 2998 it was > 100 µM (inactive); in the experiment with HCT-116 it was 81.7 µM (inactive); in the experiment on HL-60 it was > 100 µM (inactive); in the experiment with HT-29 it was > 100 µM (inactive). In addition, the GI50 is 55.2 µM (inactive) in the experiment with LOX IMVI; > 100 µM (inactive) with MOLT-4; 27.2 µM (inactive) in the experiment on NCI-H23; > 100 µM (inactive) in the experiment with NCI-H522; > 100 µM (inactive) in the experiment on RPMI-8226; > 100 µM (inactive) in the experiment on SF-268. Further, the GI50 in the experiment on SF-539, in the experiment with SK-MEL-28, in the experiment with SK-OV-3, with SNB-78 and in the experiment with TK-10 was > 100 µM (inactive) each time.

`Cc1c(N2CCOCC2)nc2ccc(Cl)cc2c1-c1ccccc1`: the GI50 in the experiment on A498 was > 100 µM (inactive); in the experiment with CAKI-1, 76.4 µM (inactive); with HCC 2998, 40.9 µM (inactive); in the experiment on HCT-116, 56.9 µM (inactive); with HL-60 it was 34 µM (inactive); in the experiment on HT-29 it was 57.1 µM (inactive). Besides, the GI50 with LOX IMVI is 49.4 µM (inactive); with MOLT-4, 21.8 µM (inactive); in the experiment on NCI-H23, 69.7 µM (inactive); in the experiment with NCI-H522 it was 30.8 µM (inactive); in the experiment with RPMI-8226, 46.9 µM (inactive); with SF-268, 80.2 µM (inactive). Moreover, the GI50 was 61.9 µM (inactive) in the experiment on SF-539; > 100 µM (inactive) in the experiment with SK-MEL-28; > 100 µM (inactive) in the experiment on SK-OV-3; > 100 µM (inactive) with SNB-78; > 100 µM (inactive) in the experiment with TK-10.

With `CCOP(=O)(OCC)/C(C#N)=C\c1ccc(OC(C)=O)cc1`, the GI50 with A498, with CAKI-1, with DU-145, with HCC 2998, in the experiment with HCT-116 and in the experiment with HL-60 was > 100 µM (inactive) each time. In addition, the GI50 is > 100 µM (inactive) in the experiment on HT-29; > 100 µM (inactive) in the experiment on LOX IMVI; > 100 µM (inactive) in the experiment on MOLT-4; > 100 µM (inactive) in the experiment with NCI-H23; > 80.2 µM (inactive) in the experiment with NCI-H522; > 100 µM (inactive) with RPMI-8226. Further, the GI50 in the experiment on SF-268 is > 66.2 µM (inactive); in the experiment with SF-539 it was > 100 µM (inactive); in the experiment with SK-MEL-28, > 100 µM (inactive); in the experiment on SK-OV-3, > 100 µM (inactive); in the experiment on SNB-78 it was > 100 µM (inactive); in the experiment on TK-10, > 100 µM (inactive).

As for `Cc1cc2c(=O)c3ccc(Cl)cc3[nH]c2c(C(N)=O)c1C`, the GI50 with A498, in the experiment with HCC 2998, in the experiment with HCT-116, in the experiment with HL-60, in the experiment with HT-29 and in the experiment with LOX IMVI was > 100 µM (inactive) in each case. Also, the GI50 with MOLT-4, in the experiment on NCI-H23, in the experiment with NCI-H522, with RPMI-8226, in the experiment on SF-268 and in the experiment with SF-539 was > 100 µM (inactive) each time. Also, the GI50 in the experiment with SK-MEL-28, in the experiment with SK-OV-3, in the experiment with SNB-78 and in the experiment with TK-10 was > 100 µM (inactive) each time.

Turning to `C[N+](C)(C)CC1CCCC1=O` (configuration not stated), the GI50 was 13.1 µM (inactive) in the experiment with A498; 1 µM (active) with BT-549; 2.48 µM (inactive) with CAKI-1; 0.0296 µM (active) with DU-145; 16 µM (inactive) in the experiment on HCC 2998; 1.25 µM (inactive) in the experiment on HCT-116. The GI50 with HL-60 is 0.406 µM (active); in the experiment on HT-29, 1.23 µM (inactive); with LOX IMVI, 0.832 µM (active); in the experiment on MDA-MB-231, 1.39 µM (inactive); in the experiment with MOLT-4, 0.249 µM (active); in the experiment with NCI-H23 it was 4.45 µM (inactive). The GI50 in the experiment on NCI-H522 was < 0.0105 µM (active); in the experiment on RPMI-8226 it was 0.306 µM (active); in the experiment on SF-268, 9.64 µM (inactive); in the experiment with SF-539, 2.98 µM (inactive); in the experiment with SK-MEL-28 it was 1.89 µM (inactive); with SK-OV-3, 16.5 µM (inactive). The GI50 in the experiment with SNB-78 was 3.24 µM (inactive); with TK-10 it was 2.62 µM (inactive).

Regarding `O=C1CC2(C[C@@H]3CCCCCCCCC[C@@H](C3)C2)N1` (some centres not stated), the GI50 in the experiment with A498 was 16.7 µM (inactive); with CAKI-1, 12.6 µM (inactive); in the experiment with HCC 2998, 12.2 µM (inactive); in the experiment on HCT-116 it was 19.5 µM (inactive); with HL-60, 15.1 µM (inactive); in the experiment with HT-29, 12.8 µM (inactive). The GI50 is 12.4 µM (inactive) in the experiment with MOLT-4; 16.7 µM (inactive) with NCI-H23; 16.3 µM (inactive) with NCI-H522; 13.7 µM (inactive) with RPMI-8226; 20.4 µM (inactive) in the experiment on SF-268; 15.8 µM (inactive) in the experiment on SF-539. The GI50 is 17.2 µM (inactive) in the experiment on SK-MEL-28, 15.1 µM (inactive) in the experiment with SK-OV-3, 23.4 µM (inactive) in the experiment with SNB-78 and 17.1 µM (inactive) in the experiment with TK-10.

Regarding `CCOc1ccc(/C=C/C(=O)c2sc(NNC(C)=O)nc2C)cc1`, the GI50 in the experiment with A498, in the experiment with CAKI-1, in the experiment on HCC 2998, in the experiment with HL-60, with HT-29 and in the experiment with LOX IMVI was > 100 µM (inactive) throughout. In addition, the GI50 in the experiment on MOLT-4, in the experiment on NCI-H23, in the experiment on NCI-H522, with RPMI-8226, with SF-268 and in the experiment on SF-539 was > 100 µM (inactive) each time. Moreover, the GI50 in the experiment with SK-MEL-28, with SK-OV-3, with SNB-78 and in the experiment with TK-10 was > 100 µM (inactive) each time.

With `O=C1O[B-](c2ccccc2)(c2ccccc2)[NH2+]C1CS` (configuration not stated), the GI50 in the experiment on A498 was 41.8 µM (inactive); with CAKI-1 it was 35.6 µM (inactive); in the experiment on HCC 2998 it was 49.7 µM (inactive); in the experiment with HCT-116, 33.7 µM (inactive); with HL-60, 23.9 µM (inactive); in the experiment with HT-29, 71.3 µM (inactive). The GI50 was 24.3 µM (inactive) in the experiment on LOX IMVI; 25.4 µM (inactive) in the experiment on MOLT-4; 61.2 µM (inactive) in the experiment on NCI-H23; 43.3 µM (inactive) in the experiment with NCI-H522; 20.2 µM (inactive) in the experiment on RPMI-8226; 96.4 µM (inactive) in the experiment with SF-268. Further, the GI50 was 57.7 µM (inactive) with SF-539; 66.1 µM (inactive) in the experiment with SK-MEL-28; > 100 µM (inactive) with SK-OV-3; 65.9 µM (inactive) in the experiment with SNB-78; 85.1 µM (inactive) in the experiment on TK-10.

For `COc1ccc2cc3[n+](cc2c1O)CCc1cc2c(cc1-3)OCO2` [BERBERRUBINE CHLORIDE], the GI50 in the experiment on A498 is > 100 µM (inactive); in the experiment on HCC 2998, > 100 µM (inactive); in the experiment with HCT-116, 83 µM (inactive); in the experiment on HL-60, > 100 µM (inactive); with HT-29 it was 96.4 µM (inactive); in the experiment on LOX IMVI, 40.4 µM (inactive). For the same compound, the GI50 with MOLT-4 is 52.8 µM (inactive); in the experiment on NCI-H23 it was 70 µM (inactive); in the experiment with NCI-H522, > 100 µM (inactive); in the experiment on RPMI-8226, > 100 µM (inactive); with SF-268, > 100 µM (inactive); with SF-539 it was > 100 µM (inactive). Further, the GI50 in the experiment with SK-MEL-28, in the experiment on SK-OV-3, with SNB-78 and in the experiment on TK-10 was > 100 µM (inactive) in each case.
